Laboratory results reported in US12365687B2 (Hoffmann-La Roche Inc., priority 2021, dated 2025).

What was measured:
[1] = target: α2β2γ1 GABAA receptor subtype (Homo sapiens (Human), UniProt P47869+Q8N1C3); experiment: Two-electrode voltage clamp electrophysiology in Xenopus oocytes expressing GABAA receptors (modulation of GABA EC20 current); format: cell-based; conditions: for Efficacy (GABA)%: % modulation of GABA EC20 = 100*(Fold increase-1), α2β2γ1 oocytes, compound at approx. 30-fold Ki; for Fold increase h-GABA-A α2β2γ1 oocyte @ 30-fold Ki: Xenopus oocytes expressing α2β2γ1, compound at approx. 30-fold its Ki α2β2γ1, GABA EC20 current
How it was run: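 Two-electrode voltage clamp at −80 mV, room temperature, 3-5 days after mRNA injection into oocytes. GABA applied at EC20 for 1.5 min, twice, with compound during second application; at least 3 oocytes per concentration. Efficacy = extremum of point-by-point current ratio, expressed as 100×(fold increase−1).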

[2] = target: human GABAA α5β2γ1 receptor (Homo sapiens (Human), UniProt P31644+Q8N1C3); experiment: Radioligand binding assay for γ1-containing GABAA subtypes, [3H]RO7239181 competition (α5β2γ1)
[3] = target: human GABAA α1β3γ2 receptor (Homo sapiens (Human), UniProt P14867+P18507); experiment: Radioligand binding assay for γ2-containing GABAA subtypes, [3H]Flumazenil competition (α1β3γ2); conditions: for γ2/γ1 Selectivity Ratio: Ki α1β3γ2 (nM)/Ki α2β2γ1 (nM); for LogSel: Log[Ki α1β3γ2 (nM)/Ki α2β2γ1 (nM)]
[4] = target: human GABAA α2β2γ1 receptor (Homo sapiens (Human), UniProt P47869+Q8N1C3); experiment: Radioligand binding assay for γ1-containing GABAA subtypes, [3H]RO7239181 competition (α2β2γ1)
[5] = Ki h-GABAA α2β2γ1, [3H]RO7239181 competition binding, human GABAA α2β2γ1
[6] = Ki h-GABAA α2β2γ1, displacement of [3H]RO7239181, membranes of HEK293F cells expressing human receptors, means of two determinations

SMILES	Efficacy (GABA)% [1] [%]	Fold increase h-GABA-A α2β2γ1 oocyte @ 30-fold Ki [1]	Ki [2] [nM]	Ki [3] [nM]	γ2/γ1 Selectivity Ratio [3]	LogSel [3]	Ki [4, 5] [nM]	Ki [4, 6] [nM]
C[C@@H]1N=C(c2c(F)cccc2F)c2c(ccc(Cl)c2Cl)-n2nc(C(=O)NC[C@@H](C)O)nc21 [Example 65, (4S)-7,8-dichloro-6-(2,6-difluorophenyl)-4-methyl-N-[(2R)-2-hydroxypropyl]-4H-[1,2,4]triazolo[1,5-a][1,4]benzodiazepine-2-carboxamide]	80	1.80	0.5	492	84.8	1.93	5.8	5.8
C[C@@H]1N=C(c2c(F)cccc2F)c2c(ccc(Cl)c2Cl)-n2nc(N3CC(O)C3)nc21 [Example 66, 1-[(4S)-7,8-dichloro-6-(2,6-difluorophenyl)-4-methyl-4H-[1,2,4]triazolo[1,5-a][1,4]benzodiazepin-2-yl]azetidin-3-ol]	58	1.58	1.24	241	39.7	1.60	6.1	6.1
CC(=O)NCc1nc2n(n1)-c1ccc(Cl)c(Cl)c1C(c1c(F)cccc1F)=N[C@H]2C [Example 67, N-[[(4S)-7,8-dichloro-6-(2,6-difluorophenyl)-4-methyl-4H-[1,2,4]triazolo[1,5-a][1,4]benzodiazepin-2-yl]methyl]acetamide]	47	1.47	0.79	503	96.5	1.98	5.2	5.2
C[C@@H]1N=C(c2c(F)cccc2F)c2c(ccc(Cl)c2Cl)-n2cc(C(=O)N3CC(O)C3)nc21 [Example 68, (3-hydroxyazetidin-1-yl)-[(4S)-7,8-dichloro-6-(2,6-difluorophenyl)-4-methyl-4H-imidazo[1,2-a][1,4]benzodiazepin-2-yl]methanone]	107	2.07	1.48	318	44.0	1.64	7.2	7.2
C[C@@H]1N=C(c2c(F)cccc2F)c2c(ccc(Cl)c2Cl)-n2nc(S(N)(=O)=O)nc21 [Example 69, (4S)-7,8-dichloro-6-(2,6-difluorophenyl)-4-methyl-4H-[1,2,4]triazolo[1,5-a][1,4]benzodiazepine-2-sulfonamide]	97	1.97	0.77	1150	60.1	1.78	19.2	19.2
C[C@@H]1N=C(c2c(F)cccc2F)c2c(ccc(Cl)c2Cl)-n2cc(C(=O)N3CCC3)nc21 [Example 70, azetidin-1-yl-[(4S)-7,8-dichloro-6-(2,6-difluorophenyl)-4-methyl-4H-imidazo[1,2-a][1,4]benzodiazepin-2-yl]methanone]	73	1.73	1.08	500	26.7	1.43	18.7	18.7
C[C@@H]1N=C(c2c(F)cccc2F)c2c(ccc(Cl)c2Cl)-n2cc(C(=O)N3CC(C#N)C3)nc21 [Example 71, 1-[(4S)-7,8-dichloro-6-(2,6-difluorophenyl)-4-methyl-4H-imidazo[1,2-a][1,4]benzodiazepine-2-carbonyl]azetidine-3-carbonitrile]	51	1.51	1.84	389	32.8	1.52	11.9	11.9
C[C@@H]1N=C(c2c(F)cccc2F)c2c(ccc(Cl)c2Cl)-n2nc(C(=O)N3CC(CF)C3)nc21 [Example 72, [3-(fluoromethyl)azetidin-1-yl]-[(4S)-7,8-dichloro-6-(2,6-difluorophenyl)-4-methyl-4H-[1,2,4]triazolo[1,5-a][1,4]benzodiazepin-2-yl]methanone]	44	1.44	1.1	727	100.6	2.00	7.2	7.2
CNS(=O)(=O)c1nc2n(n1)-c1ccc(Cl)c(Cl)c1C(c1c(F)cccc1F)=N[C@H]2C [Example 73, (4S)-7,8-dichloro-6-(2,6-difluorophenyl)-N,4-dimethyl-4H-[1,2,4]triazolo[1,5-a][1,4]benzodiazepine-2-sulfonamide]	58	1.58	2.97	2170	44.1	1.64	49.1	49.1
C[C@@H]1N=C(c2c(F)cccc2F)c2c(ccc(Cl)c2Cl)-n2cc(C#N)nc21 [Example 74, (4S)-7,8-dichloro-6-(2,6-difluorophenyl)-4-methyl-4H-imidazo[1,2-a][1,4]benzodiazepine-2-carbonitrile]	75	1.75	0.7	593	61.8	1.79	9.6	9.6
C[C@@H]1N=C(c2c(F)cccc2F)c2c(ccc(Cl)c2Cl)-n2nc(C(=O)N3CC(C(F)F)C3)nc21 [Example 75, [3-(difluoromethyl)azetidin-1-yl]-[(4S)-7,8-dichloro-6-(2,6-difluorophenyl)-4-methyl-4H-[1,2,4]triazolo[1,5-a][1,4]benzodiazepin-2-yl]methanone]	41	1.41	1.14	737	53.4	1.73	13.8	13.8
C[C@@H]1N=C(c2c(F)cccc2F)c2c(ccc(Cl)c2Cl)-n2nc(C(=O)N3CC[C@@H](F)C3)nc21 [Example 76, [(4S)-7,8-dichloro-6-(2,6-difluorophenyl)-4-methyl-4H-[1,2,4]triazolo[1,5-a][1,4]benzodiazepin-2-yl]-[(3R)-3-fluoropyrrolidin-1-yl]methanone]	52	1.52	1.64	968	157.7	2.20	6.1	6.1
C[C@@H]1N=C(c2c(F)cccc2F)c2c(ccc(Cl)c2Cl)-n2nc(N3CC(C#N)C3)nc21 [Example 77, 1-[(4S)-7,8-dichloro-6-(2,6-difluorophenyl)-4-methyl-4H-[1,2,4]triazolo[1,5-a][1,4]benzodiazepin-2-yl]azetidine-3-carbonitrile]	69	1.69	1	279	27.2	1.44	10.2	10.2
C[C@@H]1N=C(c2ncccc2F)c2c(ccc(Cl)c2Cl)-n2nc(C(=O)N3CC[C@@H](F)C3)nc21 [Example 78, [(4S)-7,8-dichloro-6-(3-fluoro-2-pyridyl)-4-methyl-4H-[1,2,4]triazolo[1,5-a][1,4]benzodiazepin-2-yl]-[(3R)-3-fluoropyrrolidin-1-yl]methanone]	98	1.98	18.6	6900	71.6	1.86	96.3	96.3
C[C@@H]1N=C(c2ncccc2F)c2c(ccc(Cl)c2Cl)-n2nc(C(=O)N3CC[C@H](F)C3)nc21 [Example 79, [(4S)-7,8-dichloro-6-(3-fluoro-2-pyridyl)-4-methyl-4H-[1,2,4]triazolo[1,5-a][1,4]benzodiazepin-2-yl]-[(3S)-3-fluoropyrrolidin-1-yl]methanone]	129	2.29	7.8	3720	76.8	1.89	48.4	48.4
C[C@@H]1N=C(c2c(F)cccc2F)c2c(ccc(Cl)c2Cl)-n2nc(C(=O)N3CC[C@H](F)C3)nc21 [Example 80, [(4S)-7,8-dichloro-6-(2,6-difluorophenyl)-4-methyl-4H-[1,2,4]triazolo[1,5-a][1,4]benzodiazepin-2-yl]-[(3S)-3-fluoropyrrolidin-1-yl]methanone]	89	1.89	1.9	979	68.5	1.84	14.3	14.3
